Values quoted from earlier work as cited in patent US11737471B2, “Products having high efficacy omega-6/omega-3 balanced polyunsaturated fatty acids” (OMEGA FOODS, LLC, priority 2011, dated 2023).

Conditions: by some estimates

## CC/C=C\C/C=C\C/C=C\CCCCCCCC(=O)O [ALA, alpha-linolenic acid]
  conversion of ALA to DHA and EPA by the human body: less than 1%
